Values quoted from earlier work in patent US6998112B2, “Sleep inducing toothpaste made with natural herbs and a natural hormone” (priority 2003, dated 2006).

Conditions: in vivo

Melatonin
adverse effects: isolated reports of exacerbation of depression and fatigue
